In data set [1] the target is T1, hP2X2/3R (Homo sapiens, UniProt P56373+Q9UBL9).
T1 construct: expressed in transfected cells
T1 sequence (P56373 1-397): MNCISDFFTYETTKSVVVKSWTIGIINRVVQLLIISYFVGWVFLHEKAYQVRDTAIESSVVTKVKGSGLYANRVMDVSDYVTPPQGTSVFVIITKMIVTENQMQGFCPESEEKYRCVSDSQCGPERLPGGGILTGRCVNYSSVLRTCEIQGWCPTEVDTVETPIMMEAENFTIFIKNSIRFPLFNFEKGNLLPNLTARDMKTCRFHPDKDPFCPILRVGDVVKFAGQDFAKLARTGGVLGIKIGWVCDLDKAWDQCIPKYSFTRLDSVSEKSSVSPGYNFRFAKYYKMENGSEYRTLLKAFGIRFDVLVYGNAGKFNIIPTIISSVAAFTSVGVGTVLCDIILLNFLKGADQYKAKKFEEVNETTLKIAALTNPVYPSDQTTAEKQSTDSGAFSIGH
T1 sequence (Q9UBL9 1-471): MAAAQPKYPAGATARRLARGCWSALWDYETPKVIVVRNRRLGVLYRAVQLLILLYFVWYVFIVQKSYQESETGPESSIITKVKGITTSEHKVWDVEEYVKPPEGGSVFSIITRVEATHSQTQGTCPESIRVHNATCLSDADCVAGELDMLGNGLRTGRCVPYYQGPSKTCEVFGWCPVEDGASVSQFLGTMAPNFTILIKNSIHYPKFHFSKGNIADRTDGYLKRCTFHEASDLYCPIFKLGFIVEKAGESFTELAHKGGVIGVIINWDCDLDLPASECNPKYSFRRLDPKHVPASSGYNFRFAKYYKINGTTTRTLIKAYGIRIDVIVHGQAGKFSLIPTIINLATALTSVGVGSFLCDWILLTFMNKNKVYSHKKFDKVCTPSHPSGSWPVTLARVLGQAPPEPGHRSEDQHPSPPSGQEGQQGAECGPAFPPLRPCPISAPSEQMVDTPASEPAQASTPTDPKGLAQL
Kind of data set: Calcium influx (Fluo-4) evoked by α,β-meATP in HEK293 cells stably expressing hP2X2/3R. Format: cell-based. The settings on record: antagonistic activity; HEK293 cells expressing hP2X2/3R; agonist at EC70. The protocol: For the evaluation of P2XR activities, a cell-based assay system was employed to measure the level of fluorescence emission, based on Fluo-4 dye, during Ca^2+ influx evoked by αβmeATP in HEK293 cells stably expressing hP2X2/3R and hP2X3R. The library containing 8364 representative compounds for the screening of antagonistic activity was provided by the Korea Chemical Bank. The antagonistic activities were evaluated in the presence of P2X3R agonist of the concentration for EC70 value (200–250 nM for hP2X3R and 1–4 μM for hP2X2/3R highly expressed cell lines), and AF353 was used as the positive control antagonist for comparison. […]
3.4. Cell-Based Assay: Measurement of Calcium Influx by Fluorescence-Based Fluo-4 Dye Uptake in HEK293 Cells Expressing hP2X2/3 and hP2X3 Receptors
Human P2X3-expressing HEK293 cells were grown in DMEM supplemented with 10% fetal bovine serum and 1% antibiotic–antimycotic as a monolayer culture at 37 °C in a humidified atmosphere of 5% CO2. […] Flexstation 3 and its software provided by Molecular Devices was used for the measurement of fluorescence in real time of treatments using prepared α,β-meATP (M6517, Sigma Aldrich) solution to evoke calcium influx and increased cell membrane potential. […]

In data set [2] the target is T2, CYP 1A2 (Homo sapiens, UniProt P05177).
T2 sequence (P05177 1-516): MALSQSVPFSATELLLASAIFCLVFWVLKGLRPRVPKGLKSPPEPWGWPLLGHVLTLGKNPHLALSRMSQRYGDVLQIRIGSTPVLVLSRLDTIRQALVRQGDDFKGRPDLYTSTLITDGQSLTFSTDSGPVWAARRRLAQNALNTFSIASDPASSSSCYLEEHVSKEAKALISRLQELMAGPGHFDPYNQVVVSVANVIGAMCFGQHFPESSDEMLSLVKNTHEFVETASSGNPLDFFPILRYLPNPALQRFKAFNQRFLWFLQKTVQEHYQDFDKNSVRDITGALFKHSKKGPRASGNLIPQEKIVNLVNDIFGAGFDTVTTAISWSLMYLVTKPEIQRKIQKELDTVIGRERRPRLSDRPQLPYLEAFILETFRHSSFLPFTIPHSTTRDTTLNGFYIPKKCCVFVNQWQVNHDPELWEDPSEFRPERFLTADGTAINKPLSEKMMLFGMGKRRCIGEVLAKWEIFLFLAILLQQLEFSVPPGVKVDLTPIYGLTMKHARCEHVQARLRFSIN
As to the kind of experiment: CYP450 inhibition 1A2. It counts as in vitro ADME. The following applies: compound 10 μM.

Data set [3] deals with CYP 2C19 (Homo sapiens, UniProt P33261). Kind of data set: CYP450 inhibition 2C19. Format: in vitro ADME. The settings on record: compound 10 μM.
Data set [4] is described as follows: Metabolic stability in microsomal fraction, human. It counts as in vitro ADME. The settings on record: human microsomal fraction, read-out: Metabolic Stability (Microsomal Fr.) % remaining after 30 min.

One molecule from paper PMC8877008, “Synthesis and Structure–Activity Relationship Studies of Benzimidazole-4,7-dione-Based P2X3 Receptor Antagonists as Novel Anti-Nociceptive Agents” (Molecules, 2022) can be followed below.

Structures are written as SMILES.

CYP 2C19, sequence (P33261 whole entry): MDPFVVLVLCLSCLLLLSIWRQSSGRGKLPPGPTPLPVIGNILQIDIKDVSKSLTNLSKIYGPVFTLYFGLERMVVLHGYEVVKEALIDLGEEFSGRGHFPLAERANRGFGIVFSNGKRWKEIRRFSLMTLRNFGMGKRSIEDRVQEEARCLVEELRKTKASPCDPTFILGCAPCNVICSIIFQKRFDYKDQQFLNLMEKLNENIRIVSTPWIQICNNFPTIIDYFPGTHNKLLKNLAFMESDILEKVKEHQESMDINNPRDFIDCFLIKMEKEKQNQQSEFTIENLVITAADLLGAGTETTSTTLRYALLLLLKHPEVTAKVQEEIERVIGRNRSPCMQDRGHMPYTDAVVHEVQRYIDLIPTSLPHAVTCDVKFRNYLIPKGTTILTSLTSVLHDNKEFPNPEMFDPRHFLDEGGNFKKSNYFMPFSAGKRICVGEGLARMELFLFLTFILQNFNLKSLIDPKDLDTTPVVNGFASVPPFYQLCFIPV

`O=C1C(NC2CCN(C(=O)c3ccc(F)c(F)c3)CC2)=C(Cl)C(=O)c2[nH]c(C(F)(F)F)nc21` [14h, 6-Chloro-5-((1-(3,4-difluorobenzoyl)piperidin-4-yl)amino)-2-(trifluoromethyl)-1H-benzo[d]imidazole-4,7-dione]: the IC50 (usually the concentration needed to halve the response being measured) in data set [1] stood at 9.1 µM. The “CYP450 inhibition 1A2” value in data set [2] is 6.78%. Moreover, in data set [3], the “CYP450 inhibition 2C19” value amounted to 25.6%. Moreover, the share remaining (in general, the share of the starting amount still present when the sample was taken) at 0.5 h in data set [4] is over 99%.
